# Measurements as given in US10750743B2, “Pyridazinone herbicides” (E.I. DU PONT DE NEMOURS AND COMPANY, priority 2015, dated 2020).
# Key:
# Type in all cases: in vivo
# [1] = tested on: foxtail, giant (giant foxtail, Setaria faberii); assay: Test A preemergence, directed soil spray, visual injury rating; settings: 0 is no effect, 100 is complete control
# Outline: (§1)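 Seeds sown in a loam soil–sand blend received a directed preemergence soil spray of test chemical in a non-phytotoxic solvent mixture with surfactant. Postemergence plants were sprayed at 2 to 10 cm, one- to two-leaf stage. After approximately 10 d in greenhouse, injury was visually rated 0 (no effect) to 100 (complete control) against untreated controls.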
# [2] = tested on: ragweed (common ragweed, Ambrosia elatior); assay: as above; settings: 0 is no effect, 100 is complete control
# Outline: as §1
# kochia (Kochia scoparia) [3] = assay: as above; settings: 0 is no effect, 100 is complete control
# Outline: as §1
# [4] = tested on: ryegrass, It. (Italian ryegrass, Lolium multiflorum); assay: as above; settings: 0 is no effect, 100 is complete control
# Outline: as §1
# [5] = tested on: pigweed (Amaranthus retroflexus); assay: as above; settings: 0 is no effect, 100 is complete control
# Outline: as §1
# [6] = tested on: barnyardgrass (Echinochloa crus-galli); assay: as above; settings: 0 is no effect, 100 is complete control
# Outline: as §1
# rice (Oryza sativa) = assay: Test B flooded paddy test, visual rating; settings: Flood, 250 g ai/ha, applied to paddy water, rated after 13 to 15 d
# Outline: (§2)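 Plants at the 2-leaf stage were flooded to 3 cm above soil, and test compounds were applied directly into the paddy water, which was held at that depth throughout. After 13 to 15 d in a greenhouse, injury was rated visually against untreated controls on a 0–100 scale (0 no effect, 100 complete control).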
# [7] = tested on: sedge, umbrella (small-flower umbrella sedge, Cyperus difformis); assay: Test B flooded paddy test, visual rating; settings: Flood, 250 g ai/ha, applied to paddy water, rated after 13 to 15 d
# Outline: as §2
# [8] = tested on: ducksalad (Heteranthera limosa); assay: Test B flooded paddy test, visual rating; settings: Flood, 250 g ai/ha, applied to paddy water, rated after 13 to 15 d
# Outline: as §2
# [9] = tested on: barnyardgrass (Echinochloa crus-galli); assay: Test B flooded paddy test, visual rating; settings: Flood, 250 g ai/ha, applied to paddy water, rated after 13 to 15 d
# Outline: as §2
# [10] = tested on: foxtail, giant (giant foxtail, Setaria faberii); assay: Test A postemergence application, visual injury rating; settings: for Foxtail, Giant plant response rating: 0 to 100 scale, 0 no effect, 100 complete control
# Outline: as §1
# [11] = tested on: wheat (Triticum aestivum); assay: as above; settings: for Wheat plant response rating: 0 to 100 scale, 0 no effect, 100 complete control
# Outline: as §1
# [12] = tested on: ragweed (common ragweed, Ambrosia elatior); assay: as above; settings: for Ragweed plant response rating: 0 to 100 scale, 0 no effect, 100 complete control
# Outline: as §1
# [13] = tested on: blackgrass (Alopecurus myosuroides); assay: as above; settings: 0 to 100 scale, 0 no effect, 100 complete control
# Outline: as §1
# kochia (Kochia scoparia) [14] = assay: as above; settings: for Kochia plant response rating: 0 to 100 scale, 0 no effect, 100 complete control
# Outline: as §1
# [15] = tested on: ryegrass, It. (Italian ryegrass, Lolium multiflorum); assay: as above; settings: for Ryegrass, It. plant response rating: 0 to 100 scale, 0 no effect, 100 complete control
# Outline: as §1
# [16] = tested on: galium (catchweed bedstraw, Galium aparine); assay: as above; settings: for Galium plant response rating: 0 to 100 scale, 0 no effect, 100 complete control
# Outline: as §1
# [17] = tested on: pigweed (Amaranthus retroflexus); assay: as above; settings: for Pigweed plant response rating: 0 to 100 scale, 0 no effect, 100 complete control
# Outline: as §1
# [18] = tested on: barnyardgrass (Echinochloa crus-galli); assay: as above; settings: 0 to 100 scale, 0 no effect, 100 complete control
# Outline: as §1
# corn (Zea mays) = assay: as above; settings: for Corn plant response rating: 0 to 100 scale, 0 no effect, 100 complete control
# Outline: as §1
# [19] = 31 g ai/ha, 0 is no effect, 100 is complete control
Compound,"Plant response rating (0 to 100 scale), Foxtail, Giant ([1]; 125 g ai/ha)","Plant response rating (0 to 100 scale), Ragweed ([2]; 125 g ai/ha)","Plant response rating (0 to 100 scale), Kochia (kochia (Kochia scoparia) [3]; 125 g ai/ha)","Plant response rating (0 to 100 scale), Ryegrass, It. ([4]; 125 g ai/ha)","Plant response rating (0 to 100 scale), Pigweed ([5]; 125 g ai/ha)","Plant response rating (0 to 100 scale), Barnyardgrass ([6]; 125 g ai/ha)","Rice plant response rating (0 to 100 scale, 0 is no effect, 100 is complete control) (rice (Oryza sativa))","Sedge, Umbrella plant response rating (0 to 100 scale, 0 is no effect, 100 is complete control) [7]","Ducksalad plant response rating (0 to 100 scale, 0 is no effect, 100 is complete control) [8]","Barnyardgrass plant response rating (0 to 100 scale, 0 is no effect, 100 is complete control) [9]","Foxtail, Giant plant response rating ([10]; 125 g ai/ha)",Wheat plant response rating ([11]; 125 g ai/ha),Ragweed plant response rating ([12]; 125 g ai/ha),Blackgrass plant response rating ([13]; 125 g ai/ha),Kochia plant response rating (kochia (Kochia scoparia) [14]; 125 g ai/ha),"Ryegrass, It. plant response rating ([15]; 125 g ai/ha)",Galium plant response rating ([16]; 125 g ai/ha),Pigweed plant response rating ([17]; 125 g ai/ha),Barnyardgrass plant response rating ([18]; 125 g ai/ha),Corn plant response rating (corn (Zea mays); 125 g ai/ha),further results
Cn1nc(Cl)c(O)c(-c2ccc(F)c3ccoc23)c1=O [Compound 70],50,0,40,100,30,90,0,0,0,0,40,0,90,30,90,100,90,70,90,0,"Plant response rating (0 to 100 scale), Foxtail, Giant ([1]; 31 g ai/ha): 10; Plant response rating (0 to 100 scale), Ragweed ([2]; 31 g ai/ha): 0; Plant response rating (0 to 100 scale), Kochia (kochia (Kochia scoparia) [3]; 31 g ai/ha): 0; Plant response rating (0 to 100 scale), Ryegrass, It. ([4]; 31 g ai/ha): 70; Plant response rating (0 to 100 scale), Pigweed ([5]; 31 g ai/ha): 10; Plant response rating (0 to 100 scale), Barnyardgrass ([6]; 31 g ai/ha): 40; Plant response rating (0 to 100 scale), Foxtail, Giant [10, 19]: 10; Plant response rating (0 to 100 scale), Wheat [11, 19]: 0; Plant response rating (0 to 100 scale), Ragweed [12, 19]: 10; Blackgrass plant response rating ([13]; 31 g ai/ha): 0; Plant response rating (0 to 100 scale), Kochia (kochia (Kochia scoparia) [14]; [19]): 40; Plant response rating (0 to 100 scale), Ryegrass, It. [15, 19]: 70; Plant response rating (0 to 100 scale), Galium [16, 19]: 50; Plant response rating (0 to 100 scale), Pigweed [17, 19]: 10; Barnyardgrass plant response rating ([18]; 31 g ai/ha): 10; Plant response rating (0 to 100 scale), Corn (corn (Zea mays); [19]): 0"
CCC(=O)Oc1c(C)nn(C)c(=O)c1-c1ccc(Cl)c2cc(C)oc12 [Compound 41],80,70,0,100,90,70,0,75,20,20,60,0,80,50,0,100,100,70,50,20,"Plant response rating (0 to 100 scale), Foxtail, Giant ([1]; 31 g ai/ha): 20; Plant response rating (0 to 100 scale), Ragweed ([2]; 31 g ai/ha): 0; Plant response rating (0 to 100 scale), Kochia (kochia (Kochia scoparia) [3]; 31 g ai/ha): 0; Plant response rating (0 to 100 scale), Ryegrass, It. ([4]; 31 g ai/ha): 90; Plant response rating (0 to 100 scale), Pigweed ([5]; 31 g ai/ha): 0; Plant response rating (0 to 100 scale), Barnyardgrass ([6]; 31 g ai/ha): 0; Foxtail, Giant plant response rating ([10]; 31 g ai/ha): 20; Wheat plant response rating ([11]; 31 g ai/ha): 0; Ragweed plant response rating ([12]; 31 g ai/ha): 80; Blackgrass plant response rating ([13]; 31 g ai/ha): 20; Kochia plant response rating (kochia (Kochia scoparia) [14]; 31 g ai/ha): 0; Ryegrass, It. plant response rating ([15]; 31 g ai/ha): 90; Galium plant response rating ([16]; 31 g ai/ha): 90; Pigweed plant response rating ([17]; 31 g ai/ha): 40; Barnyardgrass plant response rating ([18]; 31 g ai/ha): 20; Corn plant response rating (corn (Zea mays); 31 g ai/ha): 0"
Cc1nc2c(-c3c(O)c(C)nn(C)c3=O)cccc2s1 [Compound 27],0,20,0,30,0,0,0,0,0,0,20,0,0,0,0,20,0,0,0,0,"Plant response rating (0 to 100 scale), Foxtail, Giant ([1]; 500 g ai/ha): 50; Plant response rating (0 to 100 scale), Ragweed ([2]; 500 g ai/ha): 20; Plant response rating (0 to 100 scale), Kochia (kochia (Kochia scoparia) [3]; 500 g ai/ha): 0; Plant response rating (0 to 100 scale), Ryegrass, It. ([4]; 500 g ai/ha): 40; Plant response rating (0 to 100 scale), Pigweed ([5]; 500 g ai/ha): 0; Plant response rating (0 to 100 scale), Barnyardgrass ([6]; 500 g ai/ha): 0; Foxtail, Giant plant response rating ([10]; 500 g ai/ha): 40; Wheat plant response rating ([11]; 500 g ai/ha): 0; Ragweed plant response rating ([12]; 500 g ai/ha): 30; Blackgrass plant response rating ([13]; 500 g ai/ha): 30; Kochia plant response rating (kochia (Kochia scoparia) [14]; 500 g ai/ha): 0; Ryegrass, It. plant response rating ([15]; 500 g ai/ha): 40; Galium plant response rating ([16]; 500 g ai/ha): 60; Pigweed plant response rating ([17]; 500 g ai/ha): 0; Barnyardgrass plant response rating ([18]; 500 g ai/ha): 20; Corn plant response rating (corn (Zea mays); 500 g ai/ha): 0"
